“Also recorded” adds a separate entry of the source.
How the values were obtained:
[1] = system: breast cancer associated with lung metastasis; test: Urinary alkalinization therapy, breast cancer patient with lung metastasis (person); type: in vivo, human
Experimental: A patient was diagnosed with breast cancer […] and underwent a surgical operation. In January, 2011, transfer of recurrent breast cancer to the lung was found. Administration of Taxotere (80 mg/m^2) was continued at the intervals of 3 weeks. […] Because of this, the dose of Taxotere was reduced to 60 mg/m^2 (intervals of 3 weeks).

lung cancer = test: Urinary alkalinization therapy, lung cancer patient; type: in vivo, human
Source text: A patient successively underwent a surgery for breast cancer in March, 2009, a surgery for endometrial cancer in October, 2010 and a surgery for lung cancer (adenocarcinoma, upper right lobe) in December, 2011.
From January, 2012, application of a urinary alkalinization therapy, including orally administering magnesium oxide (laxative, Magmitt (manufactured by Kyowa Chemical Industry Co., Ltd.)) every day in a dose of 2 g per day after a meal three times (the dose being divided into three portions), was initiated.

B16 melanoma cells = conditions: aqueous solution 200 mmol/L (17 g/L) fed, with cancer immunotherapy by e.g. a cancer immunity-checkpoint inhibitor; vs water without sodium hydrogen carbonate; cited from earlier work
cancer cells = conditions: pHe shifted from acidic to alkaline range by gradually increasing the concentration in the serum; cited from earlier work
[2] = system: gastric cancer (gastroesophageal junction cancer); conditions: cited from earlier work

Question: Which results are given for `CC(=O)O[C@@]12CO[C@@H]1C[C@H](O)[C@@]1(C)C(=O)[C@H](O)C3=C(C)[C@@H](OC(=O)[C@H](O)[C@@H](NC(=O)OC(C)(C)C)c4ccccc4)C[C@@](O)([C@@H](OC(=O)c4ccccc4)[C@H]21)C3(C)C` [Taxotere, docetaxel]?
Answer: side effect ([1]; Taxotere alone 80 mg/m^2 every 3 weeks, six months): severe side effect; disease state ([1]; Taxotere alone reduced to 60 mg/m^2 every 3 weeks): the disease did not become stable

Question: Which results are given for `[O]=[Mg]` [magnesium oxide]?
Answer: urine pH value (lung cancer; continuous oral administration, 2 g per day): kept in the alkaline pH range; recurrence/metastasis, development of another cancer (lung cancer; oral, 2 g per day in three portions, every day from January, 2012, after surgeries): recurrence and metastasis of lung cancer have not been observed; also recorded: Neither development of another cancer nor recurrence/metastasis has been found

Question: What does the source list for `O=C([O-])O.[Na+]` [sodium hydrogen carbonate]?
Answer: antitumor effect (B16 melanoma cells): a significantly high antitumor effect is obtained; proliferation and invasion of cancer cells (cancer cells): the proliferation and invasion of cancer cells can be suppressed

Question: Which results are given for “Opdivo: immune checkpoint inhibitor containing anti-human PD-1 monoclonal antibody (nivolumab)”?
Answer: median overall survival ([2]; gastric cancer patients (gastroesophageal junction cancer), Lancet. 2017 Dec. 2, 390 (10111): 2461-2471): about 5.26 months; tumor shrinkage and decrease of a tumor marker level ([2]; patients with end-stage gastric cancer): seldom confirmed

Source: patent US11622976B2, “Urine alkali agent useful for treatment of cancer patient” (Delta-Fly Pharma, Inc., priority 2018, dated 2023)
